Experimental data as given in PubChem BioAssay (NCI).
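Where inhibition never reached the appropriate level, the endpoint shown equals the highest concentration tested. Otherwise, values were interpolated linearly from a five-concentration, 48-hour dose response in 96-well plates. Definition used: TGI = concentration required for complete inhibition of growth.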

Key:
Assay in all cases: NCI anticancer screen, dose series, 48 h
786-0 renal = system: 786-0 renal
CAKI-1 renal = system: CAKI-1 renal
DMS 273 small cell lung = system: DMS 273 small cell lung
HCT-15 colon = system: HCT-15 colon
K-562 leukemia = system: K-562 leukemia
M14 melanoma = system: M14 melanoma
NCI-H23 lung = system: NCI-H23 lung
NCI-H460 lung = system: NCI-H460 lung
OVCAR-4 ovarian = system: OVCAR-4 ovarian
OVCAR-8 ovarian = system: OVCAR-8 ovarian
SF-268 CNS = system: SF-268 CNS
SF-539 CNS = system: SF-539 CNS
SK-MEL-2 melanoma = system: SK-MEL-2 melanoma
SK-MEL-28 melanoma = system: SK-MEL-28 melanoma
SR leukemia = system: SR leukemia
MCF7 breast = system: MCF7 breast
MDA-MB-435 = system: MDA-MB-435
MDA-N = system: MDA-N
T-47D breast = system: T-47D breast

Cc1cc(=O)[nH]c(NNC(C#N)c2cccc(O)c2)n1 (stereo unspecified)
TGI (786-0 renal): > 100 µM | TGI (CAKI-1 renal): > 100 µM | TGI (DMS 273 small cell lung): > 100 µM | TGI (HCT-15 colon): > 100 µM | TGI (K-562 leukemia): > 100 µM | TGI (M14 melanoma): > 100 µM | TGI (NCI-H23 lung): > 100 µM | TGI (NCI-H460 lung): > 100 µM | TGI (OVCAR-4 ovarian): > 100 µM | TGI (OVCAR-8 ovarian): > 100 µM | TGI (SF-268 CNS): > 100 µM | TGI (SF-539 CNS): > 100 µM | TGI (SK-MEL-2 melanoma): > 100 µM | TGI (SK-MEL-28 melanoma): > 100 µM | TGI (SR leukemia): > 100 µM

O=c1cc(-c2cccc(O)c2)[nH]c2cc3c(cc12)OCO3
TGI (786-0 renal): > 69.9 µM | TGI (DMS 273 small cell lung): 4.23 µM | TGI (HCT-15 colon): > 100 µM | TGI (K-562 leukemia): > 100 µM | TGI (M14 melanoma): > 52.5 µM | TGI (MCF7 breast): > 100 µM | TGI (MDA-MB-435): 0.997 µM | TGI (MDA-N): 1.07 µM | TGI (NCI-H23 lung): > 100 µM | TGI (NCI-H460 lung): > 100 µM | TGI (OVCAR-4 ovarian): > 100 µM | TGI (OVCAR-8 ovarian): > 29.7 µM | TGI (SF-268 CNS): > 69.6 µM | TGI (SF-539 CNS): 4.39 µM | TGI (SK-MEL-28 melanoma): 83.5 µM | TGI (T-47D breast): > 100 µM
